Experiments:
Assay type in all cases: cell-based, human
[1] = system: HeLa cell line that continuously produces the Otx2 homeoprotein; assay: Dot blot analysis of Otx2 protein secreted into cell culture solution; conditions: FIG. 2C
Description: In order to detect a homeoprotein secreted to the outside of the cell, a cell culture solution including sodium heparin was allowed to pass through a polyvinylidene difluoride (PVDF) membrane. Next, the membrane was treated with a blocking solution (TBST including 5% skim milk) and allowed to react at room temperature for 1 hour. Subsequently, the membrane was treated with a blocking solution including a primary antibody, allowed to react at 4° C. for 16 hours, then treated with a horseradish peroxidase (HRP)-conjugated secondary antibody, and cultured at room temperature for 1 hour, and then the membrane was exposed to an X-ray photosensitive film by inducing an enzymatic reaction using an ECL solution as a substrate to thereby analyze the results.
(§1) Accordingly, the present inventors treated a HeLa cell line that continuously produces the Otx2 homeoprotein manufactured in Example 2 with a V-ATPase inhibitor and a lysosomal pH enhancer as inhibitors of lysosomal function, and confirmed a change in secretion of the homeoprotein. The V-ATPase inhibitor is a lysosomal ion channel inhibitor, and when cells are treated with the inhibitor, the pH in the lysosome is increased, so the protein degradation by the lysosome may be suppressed because the activity of the hydrolase present in the lysosome is inhibited.
(§2) Furthermore, the level of secreted Otx2 protein and the intracellular expression level of Otx2 protein when the HeLa cells were treated with the inhibitor of lysosomal function were analyzed by a dot blot analysis and a western blot analysis.
(§3) In addition, the present inventors treated the HeLa cells with bafilomycin D (BafD) together with bafilomycin A1 (BafA1) and concanamycin A (ConA), which are types of V-ATPase inhibitors, at different concentrations, and performed an analysis in the same manner as in FIG. 2B.

[2] = system: HeLa cell line that continuously produces the Otx2 homeoprotein; assay: Immunocytochemical staining of intracellular Otx2 protein after treatment with inhibitor of lysosomal function; conditions: HeLa cells, treated 16 hours, FIG. 2A, vehicle: almost exclusively in cell nucleus
Description: Cells were cultured on a cover glass in a cell incubator for 24 hours or more, and treated with a fixing solution (physiological saline including 4% paraformaldehyde) at room temperature for 20 minutes to fix the cells. Next, after the cells were treated with a permeability-imparting solution (physiological saline including 0.1% TWEEN-20 (polysorbate 20)) at room temperature for 10 minutes, the cells were treated with a blocking solution (physiological saline including 10% donkey serum) at room temperature for 1 hour. Subsequently, the cells were treated with a blocking solution including a primary antibody, cultured at 4° C. for 16 hours, then treated with a blocking solution 10 including a fluorophore-conjugated secondary antibody, and cultured at room temperature for 1 hour. Then, the fluorescence signals of the cells were analyzed under an Olympus FV1000 confocal microscope.
as §1
Thus, specifically, after the HeLa cells were treated with each of V-ATPase inhibitors bafilomycin A1 (BafA1) and concanamycin A (ConA), and a lysosomal pH enhancer chloroquine (CQ) at different concentrations for 16 hours, the intracellular expression of the Otx2 protein was observed by immunocytochemical staining.

[3] = system: HeLa cell line that continuously produces the Otx2 homeoprotein; assay: Western blot analysis of Otx2 protein in cell lysate; conditions: for expression level of the Otx2 protein in cell lysate: HeLa cells, western blot V5 (Otx2), FIG. 2B; for intracellular expression of the Otx2 protein: FIG. 2C
Description: In order to detect a homeoprotein present inside the cell, cells were lysed with a RIPA lysate (tertiary distilled water including 20 mM Tris-HCl, pH 7.5, 150 mM NaCl, 1 mM Na2EDTA, 1 mM EGTA, 1% NP-40, 1% sodium deoxycholate, 2.5 mM sodium pyrophosphate, 1 mM β-glycerophosphate, 1 mM Na3VO4, and 1 μg/ml leupeptin), and then proteins in the cells were separated according to molecular weight by performing electrophoresis (SDS-PAGE) on the cell lysate on a polyacrylamide gel including sodium dodecyl sulfate. The gel was induced to electrically bind to a PVDF membrane after protein separation to transfer the proteins to the membrane.
The V-ATPase inhibitor is a lysosomal ion channel inhibitor, and when cells are treated with the inhibitor, the pH in the lysosome is increased, so the protein degradation by the lysosome may be suppressed because the activity of the hydrolase present in the lysosome is inhibited.
as §2, §3

[4] = concentration increased from 20 nM to 200 nM
[5] = concentration increased from 5 nM to 50 nM

Row | Compound | secretion of the Otx2 protein to the outside of the cell [1, 4] | expression pattern (intracellular position) of Otx2 protein [2] | expression level of the Otx2 protein in cell lysate [3] | intracellular expression of the Otx2 protein [3, 4] | secretion of the Otx2 protein to the outside of the cell [1, 5] | intracellular expression of the Otx2 protein [3, 5]
1 | CO/C1=C\C(C)=C\[C@@H](C)[C@@H](O)[C@@H](C)C/C(C)=C/C=C/[C@H](OC)[C@@H]([C@@H](C)[C@@H](O)[C@H](C)[C@@]2(O)C[C@@H](O)[C@H](C)[C@@H](C(C)C)O2)OC1=O [BafA1, bafilomycin A1] | increased | occurred even in the cytoplasm including the cell nucleus | a big difference did not appear | increased |  | 
2 | C/C=C/[C@H]1O[C@@](O)([C@@H](C)[C@H](O)[C@H](C)[C@H]2OC(=O)/C(OC)=C/C(C)=C/[C@@H](C)[C@@H](O)[C@@H](CC)[C@@H](O)[C@H](C)C/C(C)=C/C=C/[C@@H]2OC)C[C@@H](O[C@H]2C[C@@H](O)[C@H](OC(N)=O)[C@@H](C)O2)[C@@H]1C [ConA, concanamycin A] |  | occurred even in the cytoplasm including the cell nucleus | expressed at a higher level |  | increased | increased
3 | CCN(CC)CCCC(C)Nc1ccnc2cc(Cl)ccc12 (stereo not drawn) [CQ, chloroquine] |  | occurred even in the cytoplasm including the cell nucleus | expressed at a higher level |  |  | 
4 | bafilomycin D [BafD] | increased |  |  | increased |  | 

From patent US12091699B2, “Method for enhancing production of homeoprotein using inhibitor of lysosomal function” (Korea Advanced Institute of Science and Technology, priority 2021, dated 2024)
